Columns and labels:
[1] = Fluorescence emission spectra of probes in glycerol and methanol (viscosity response); type: physicochemical; conditions: maximum excitation wavelength of each probe; for Fluorescence ratio in glycerol methanol: 1×10^−5 M; for Emission wavelength: medium not given
From the text: Respectively dissolve Probe 1-32 and Reference Probes BG-CCVJ and BG-Gly-CCVJ in dimethyl sulfoxide so as to prepare a mother liquid with a concentration of 1×10^−2M; add the mother liquid to glycerol and methanol respectively and mix them well to prepare a solution with a concentration of 1×10^−5 M. Based on different probes, the fluorescence emission spectrum of each probe are detected under the same conditions with maximum excitation wavelength of each probe.
The probes are sensitive to the change of viscosity and have viscosity response.

[2] = Fluorescence of free probe before reaction with the protein tag; type: physicochemical
Procedure: (§1) Mix the probe with corresponding protein tag to obtain the mixed sample, wherein the final concentration of probe in the mixed sample is 5 μM, and the final concentration of protein tags is 10 μM; hatch the mixed sample at 37° C. for 1 h, and detect its fluorescence intensity change by using the fluorescence spectrophotometer.
(§2) According to the free probe quantum yield shown in Table 1, the fluorescence of the probes of and reference probes are extremely low before the reaction with the protein tag, and is close to the background fluorescence level of PBS buffer solution. […] However, according to the quantum yield of the binding protein tag, the fluorescence signal enhancement can be detected in the corresponding excitation emission channel after the probe reacts with the protein tag with hundreds to one thousand fold fluorescence activation times and very high brightness; the reference probes also can activate fluorescence, but the fluorescence quantum yield and brightness after activation are quite low.

Hela cells [3] = experiment: Labeling of Hela cells expressing protein tags versus Hela-WT cells, confocal microscopy; type: cell-based; conditions: probe 5 μM, 37° C., 2 h
Procedure: Take Hela cells as an example to detect the labeling effect of the compounds in mammalian cells. Hela cells and Hela-WT cells (Hela primitive cells without expressing protein tags), which can express protein tags stably, are planted in a glass bottom 96-well plate of 14 mm for 10 h. Add Probe 16, Probe 17 and Probe 18 into a culture medium respectively and dilute them to 5 μM. Hatch the cells in a carbon dioxide incubator at 37° C. for 2 h. Detect the fluorescence changes of labeled cells by using Leica TPS-8 confocal microscopy.

SNAP protein tag [4] = experiment: Fluorescence activation after mixing probe with corresponding protein tag (SNAP); type: biochemical; conditions: probe 5 μM, protein tag 10 μM, 37° C., 1 h
Procedure: as §1, §2

Hela cells [5] = experiment: Labeling of protein tags located in different organelles of Hela cells without washing; type: cell-based; conditions: probe 0.2 μM, 2 h
Procedure: Plant Hela cells (5000 cells/well) in a glass bottom plate of 96-well for 14 h, and then use Lipo2000 kit to transfect protein tags to locate plasmids in different organelles. After 24 h of transfection, remove the original culture medium, wash the culture medium twice with phenol free red DMEM culture medium, and hatch the cells with phenol free red medium containing probe (0.2 μM) for 2 h, and detect the effect of cell labeling by using Leica TCS-8 confocal microscopy imaging.

SNAP-IAA17-H2B = experiment: Probe fluorescence during IAA-induced protein degradation (AID system) in Hela cells; type: cell-based; conditions: probe 1 μM; 140 min after IAA added
Procedure: In order to verify that the fluorescence activation of the probe is related to the existence of protein, SNAP protein of mammalian cells is taken as an example, and AID degradation system is an example of detecting the fluorescence changes of probes combined with SNAP after protein degradation in Hela cells. Firstly, plant Hela cells (20000/cm^2) in a glass bottom cell culture medium of 20 mm for 14 h, and then transect the plasmids pcdna3.1-TIR1 and pcdna3.1-SNAP-IAA17-H2B by means of Lipofectmain2000 transfection reagent (Invertogen Co.). After the cells are transfected for 24 h, replace the cells labeled by the original cell culture medium with phenol red DMEM culture medium containing Probe 16 (1 μM), and hatch the cee sample in a carbon dioxide incubator at 37° C. for 1 h. After labeling, detect the fluorescence signal of the labeled cells by using Leica SP8 laser confocal microscopy imaging, and add indoleacetic acid (IAA) to induce the protein degradation of SNAP-IAA17-H2B, and detect the changes of cell fluorescence during protein degradation.

SNAP protein tag [6] = experiment: Labeling of SNAP protein tag expressed in the liver of living mice; type: in vivo; conditions: 0.4 μM in 200 μL PBS intravenously, 6 h
Procedure: Firstly, introduce the plasmid pcdna3.1-SNAP (sample group) with SNAP protein expressing and the contrastive plasmid pcdna3.1-CAT (contrastive group) without SNAP protein expressing into mice. In this method, the plasmid is dissolved in a large volume of solution and rapidly injected into mice intravenously. The plasmid is absorbed by mouse liver, and then express the target protein. After 24 h of plasmid injection, inject the Probe 16 (0.4 μM) dissolved in 200 μL of PBS into mice intravenously to label SNAP protein tag. After 6 h, dissect the mice, and detect liver fluorescence differences by using Kodak multispectral vivo imaging system.

Hela cells [7] = experiment: Two-colour orthogonal labeling of CLIP-histone and mito-SNAP in the same Hela cell; type: cell-based; conditions: Probe 16 and Probe 9, 0.2 μM, 2 h, without washing
Procedure: Plant Hela cells (5000 cells/well) in a glass bottom plate of 96-well for 14 h; transfect pcdna3.1-CLIP-histone (CLIP protein labeled chromosome localization plasmid) and pcdna3.1-mito-SNAP (SNAP protein labeled […] localization plasmid) by using Lipo2000 kit (0.1 μg/well). After 24 h of transfection, remove the original culture medium, and wash the culture medium twice with phenol free red DMEM culture medium, and hatch the cells respectively with phenol free red medium containing Probe 16 and Probe 9 (0.2 μM) for 2 h, and detect the effect of cell labeling by using Leica TCS-8 confocal microscopy imaging.

Row | SMILES | Fluorescence ratio in glycerol methanol [1] | Emission wavelength [1] [nm] | Quantum yield of free probe [2] | Fluorescence signal in Hela-WT cells (without protein tags) (Hela cells [3]) | Increase of fluorescence signal in cells expressing protein tags (Hela cells [3]) [times] | Fluorescence activation multiple (SNAP protein tag [4]) | Quantum yield of binding protein tags (SNAP protein tag [4]) | Display of subcellular organelle structures (Hela cells [5]) | Fluorescence signal of SNAP-IAA17-H2B protein after IAA addition (SNAP-IAA17-H2B) | Liver fluorescence intensity of pcdna3.1-SNAP mice relative to the contrastive group (SNAP protein tag [6]) | Liver fluorescence of mice injected with contrastive plasmid pcdna3.1-CAT (SNAP protein tag [6]) | Display of mitochondria and chromosomes in the same cell (Hela cells [7])
1 | CN(CCOC(=O)NCc1ccc(COc2nc(N)nc3[nH]cnc23)cc1)c1ccc2c(c1)C(C)(C)c1cc(/C=C(\C#N)C(=O)OC(C)(C)C)sc1-2 [Probe 16] | 1421 | 645 | <0.001 | no corresponding fluorescence signal is detected | ~700 | 842 | 0.71 | can clearly display a variety of subcellular organelle structures without washing | almost negligible | more than 20 fold | very low | clearly and simultaneously display the structure of mitochondria and chromosomes without washing
2 | CN(CCOC(=O)NCc1ccc(COc2nc(N)nc3[nH]cnc23)cc1)c1ccc2c(c1)C(C)(C)c1cc(/C=C(\C#N)c3nc4ccccc4s3)sc1-2 [Probe 18] | 1123 | 675 | <0.001 | no corresponding fluorescence signal is detected | ~700 | 890 | 0.48 | can clearly display a variety of subcellular organelle structures without washing |  |  |  | 

Source: patent US12613246B2, “Fluorescent probe and protein labeling method” (SHANGHAI GLORY CAPITAL MANAGEMENT LTD., priority 2018, dated 2026)
